Changes are numbered by the printed parent chain. Where a name gives a salt, the structure may show the parent alone.
Tests used:
Test in all cases: Growth inhibitory activity against Ba/F3 cell line
Assay type in all cases: cell-based
[1] = tested on: Parental Ba/F3 cells; conditions: BaF3; Parental Ba/F3 with mouse IL-3 1 ng/mL; 72 hours; cell titer glo
Description: (§1) A Ba/F3 cell line expressing an FLT3 mutation gene was cultured in a culture solution including 90% RPMI, 10% FBS, and an antibiotic (Welgene). 100 uL of the Ba/F3 cell line was put into each of 5,000 wells of a TC-treated 96 well plate (SPL), and then 1 uL of a test compound diluted in dimethylsulfoxide (diluted for each 3 paint from a concentration of 1 mM, total 10 concentrations) was each injected thereinto. Thereafter, the resulting cell lines were incubated in a cell culture incubator for 72 hours. 50 uL of a cell titer glo (Promega) solution was added thereto, the resulting mixture was stored at room temperature for 10 minutes, and then the light emission intensity was measured by using a reader (Envision, PerkinElmer). The light emission intensity was shown as a graph for each final concentration of the test compound, and the GI50 value was obtained by using a Prism 5.0 (GraphPad) software.
A parental Ba/F3 cell line having no FLT3 mutation gene was cultured by using a culture solution supplemented with mouse IL-3 (R&D Systems), such that a final concentration became 1 ng/mL in the culture solution including 90% RPMI, 10% FBS, and an antibiotic (Welgene). The activity was measured by a method which is the same as described above.

[2] = target: T1, FLT3-D835Y Ba/F3 cells (Homo sapiens, UniProt P36888, D835Y, cells depend on it); conditions: Ba/F3 expressing FLT3-D835Y; 72 hours; cell titer glo; read-out: IC50 (uM) FLT3-D835Y
T1 sequence (P36888 1-993 D835Y): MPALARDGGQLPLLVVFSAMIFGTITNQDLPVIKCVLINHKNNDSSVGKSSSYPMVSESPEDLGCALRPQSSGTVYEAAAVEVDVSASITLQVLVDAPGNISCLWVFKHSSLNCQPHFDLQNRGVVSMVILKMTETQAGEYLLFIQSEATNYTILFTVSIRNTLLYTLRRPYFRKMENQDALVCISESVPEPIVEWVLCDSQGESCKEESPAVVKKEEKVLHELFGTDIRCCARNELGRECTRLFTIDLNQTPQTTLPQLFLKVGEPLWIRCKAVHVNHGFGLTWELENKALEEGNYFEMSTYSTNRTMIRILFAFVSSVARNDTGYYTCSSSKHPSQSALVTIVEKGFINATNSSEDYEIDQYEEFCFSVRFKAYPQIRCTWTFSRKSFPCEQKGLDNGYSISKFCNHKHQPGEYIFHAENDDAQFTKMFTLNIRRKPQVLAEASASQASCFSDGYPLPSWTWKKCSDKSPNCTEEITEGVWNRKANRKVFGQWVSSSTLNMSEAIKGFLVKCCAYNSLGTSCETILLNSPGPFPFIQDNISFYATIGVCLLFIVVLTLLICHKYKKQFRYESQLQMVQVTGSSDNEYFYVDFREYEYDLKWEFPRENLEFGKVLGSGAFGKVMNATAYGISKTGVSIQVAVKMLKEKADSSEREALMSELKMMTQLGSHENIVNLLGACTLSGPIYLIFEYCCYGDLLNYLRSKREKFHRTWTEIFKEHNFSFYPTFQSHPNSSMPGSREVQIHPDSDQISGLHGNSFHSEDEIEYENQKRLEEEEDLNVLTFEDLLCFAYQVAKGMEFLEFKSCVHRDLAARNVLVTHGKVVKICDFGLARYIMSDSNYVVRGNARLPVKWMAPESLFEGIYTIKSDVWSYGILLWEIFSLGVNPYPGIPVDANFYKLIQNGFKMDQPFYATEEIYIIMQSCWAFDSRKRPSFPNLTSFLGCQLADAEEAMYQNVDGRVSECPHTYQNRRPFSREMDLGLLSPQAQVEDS
Description: as §1

[3] = target: T2, FLT3-ITD Ba/F3 cells (Homo sapiens, UniProt P36888, cells depend on it, form not given); conditions: Ba/F3 expressing FLT3-ITD; 72 hours; cell titer glo; read-out: IC50 (uM) FLT3-ITD
T2 sequence (P36888 1-993): T1 sequence (P36888 1-993 D835Y) with Y835D
Description: as §1

GI50 [2] [µM] | GI50 [3] [µM] | SMILES | IC50 [1] [µM]
0.002 | < 0.001 | NC(=O)Nc1cc(C#Cc2ccccc2)sc1C(=O)N[C@H]1CCCNC1 [Example 2, (S)-5-(phenylethynyl)-N-(piperidin-3-yl)-3-ureidothiophene-2-carboxamide] | 0.159
0.408 | 0.016 | NC(=O)Nc1cc(C#Cc2ccncc2)sc1C(=O)N[C@H]1CCCNC1 [Example 4, (S)—N-(piperidin-3-yl)-5-(pyridin-4-ylethynyl)-3-ureidothiophene-2-carboxamide] | 24
0.039 | < 0.005 | NC(=O)Nc1cc(C#Cc2cccc([N+](=O)[O-])c2)sc1C(=O)N[C@H]1CCCNC1 [Example 5, (S)-5-((3-nitrophenyl)ethynyl)-N-(piperidin-3-yl)-3-ureidothiophene-2-carboxamide] | 2.06
0.041 | < 0.005 | N#Cc1cccc(C#Cc2cc(NC(N)=O)c(C(=O)N[C@H]3CCCNC3)s2)c1 [Example 6, (S)-5-((3-cyanophenyl)ethynyl)-N-(piperidin-3-yl)-3-ureidothiophene-2-carboxamide] | 1.59
0.07 | < 0.005 | NC(=O)Nc1cc(C#Cc2ccc([N+](=O)[O-])cc2)sc1C(=O)N[C@H]1CCCNC1 [Example 7, (S)-5-((4-nitrophenyl)ethynyl)-N-(piperidin-3-yl)-3-ureidothiophene-2-carboxamide] | 1.86
0.01 | 0.001 | NC(=O)Nc1cc(C#Cc2ccc(Cl)cc2)sc1C(=O)N[C@H]1CCCNC1 [Example 8, (S)-5-((4-chlorophenyl)ethynyl)-N-(piperidin-3-yl)-3-ureidothiophene-2-carboxamide] | 0.36
0.268 | 0.028 | Cn1cc(C#Cc2cc(NC(N)=O)c(C(=O)N[C@H]3CCCNC3)s2)cn1 [Example 15, (S)-5-((l-methyl-1H-pyrazol-4-yl)ethynyl)-N-(piperidin-3-yl)-3-ureidothiophene-2-carboxamide trifluoroacetate] | 34.6
0.064 | < 0.005 | NC(=O)Nc1cc(C#Cc2ccc(C(F)(F)F)nc2)sc1C(=O)N[C@H]1CCCNC1 [Example 17, (S)—N-(piperidin-3-yl)-5-((6-(trifluoromethyl)pyridin-3-yl)ethynyl)-3-ureidothiophene-2-carboxamide] | 2.37
0.011 | 0.003 | COC(=O)c1ccc(C#Cc2cc(NC(N)=O)c(C(=O)N[C@H]3CCCNC3)s2)cc1 [Example 18, methyl (S)-4-((5-(piperidin-3-ylcarbamoyl)-4-ureidothiophen-2-yl)ethynyl)benzoate trifluoroacetate] | 0.454
0.041 | < 0.005 | NC(=O)Nc1cc(C#Cc2ccnc(F)c2)sc1C(=O)N[C@H]1CCCNC1 [Example 21, (S)-5-((2-fluoropyridin-4-yl)ethynyl)-N-(piperidin-3-yl)-3-ureidothiophene-2-carboxamide] | 2.78

Continued, compound first:

SMILES | GI50 [2] [µM] | GI50 [3] [µM] | IC50 [1] [µM]
NC(=O)Nc1cc(C#Cc2cccnc2)sc1C(=O)N[C@H]1CCCNC1 [Example 3, (S)—N-(piperidin-3-yl)-5-(pyridin-3-ylethynyl)-3-ureidothiophene-2-carboxamide] | 0.05 | < 0.005 | 6.46
NC(=O)Nc1cc(C#Cc2ccc(F)cc2)sc1C(=O)N[C@H]1CCCNC1 [Example 9, (S)-5-((4-fluorophenyl)ethynyl)-N-(piperidin-3-yl)-3-ureidothiophene-2-carboxamide] | 0.003 | < 0.001 | 0.429
NC(=O)Nc1cc(C#Cc2ccccn2)sc1C(=O)N[C@H]1CCCNC1 [Example 10, (S)—N-(piperidin-3-yl)-5-(pyridin-2-ylethynyl)-3-ureidothiophene-2-carboxamide] | 0.041 | 0.005 | 4.62
N#Cc1ccc(C#Cc2cc(NC(N)=O)c(C(=O)N[C@H]3CCCNC3)s2)cc1 [Example 11, (S)-5-((4-cyanophenyl)ethynyl)-N-(piperidin-3-yl)-3-ureidothiophene-2-carboxamide] | 0.003 | < 0.001 | 0.143
NC(=O)Nc1cc(C#Cc2n[nH]c3ccccc23)sc1C(=O)N[C@H]1CCCNC1 [Example 12, (S)-5-((1H-indazol-3-yl)ethynyl)-N-(piperidin-3-yl)-3-ureidothiophene-2-carboxamide] | 0.289 | 0.037 | > 10
NC(=O)Nc1cc(C#Cc2ccc(F)nc2)sc1C(=O)N[C@H]1CCCNC1 [Example 13, (S)-5-((6-fluoropyridin-3-yl)ethynyl)-N-(piperidin-3-yl)-3-ureidothiophene-2-carboxamide] | 0.014 | 0.002 | 2.22
NC(=O)Nc1cc(C#Cc2ccc(F)c(F)c2)sc1C(=O)N[C@H]1CCCNC1 [Example 14, (S)-5-((3,4-difluorophenyl)ethynyl)-N-(piperidin-3-yl)-3-ureidothiophene-2-carboxamide] | 0.005 | < 0.001 | 0.269
NC(=O)Nc1cc(C#Cc2ccc(C(F)(F)F)cc2)sc1C(=O)N[C@H]1CCCNC1 [Example 16, ((S)—N-(piperidin-3-yl)-5-((4-(trifluoromethyl)phenyl)ethynyl)-3-ureidothiophene-2-carboxamide trifluoroacetate] | 0.197 | 0.006 | 14.8
NC(=O)Nc1cc(C#Cc2cccc(F)c2)sc1C(=O)N[C@H]1CCCNC1 [Example 22, (S)-5-((3-fluorophenyl)ethynyl)-N-(piperidin-3-yl)-3-ureidothiophene-2-carboxamide] | 0.052 | 0.007 | 3.65

Source: patent publication US10442796B2, “2,3,5-substituted thiophene compound as protein kinase inhibitor” (KOREA INSTITUTE OF SCIENCE AND TECHNOLOGY, priority 2016, dated 2019)
